From patent US20170112564A1, “METHODS AND MATERIALS FOR TREATING HYPERTENSION” (Mayo Foundation for Medical Education and Research, priority 2014, published 2017) come the findings set out here.

The structures appear in SMILES notation.

The test system of experiment [1] is healthy humans. Description: Brief escalating doses of trimethaphan camsylate with beat-to-beat arterial pressure to distinguish high and low sympathetic activity individuals. It is filed as in vivo. Particulars: 24 healthy humans, infusion 1-4 mg/minute for 5-10 minutes. Here is the method: Both normal human subjects and patients with diseases such as resistant hypertension can have very wide ranges of baseline sympathetic activity. The following was developed to distinguish those individuals with high levels of baseline sympathetic activity from individuals with lower levels of baseline sympathetic activity. Trimethaphan camsylate, a ganglionic blocking drug, was administered (e.g., by infusion) at 1-4 mg/minute for 5-10 minutes to 24 healthy humans, while non-invasive beat-to-beat measurements of arterial pressure were made. […] The relationship between the fall in blood pressure and baseline sympathetic activity in a group of about 20-30 healthy women ranging in age from their early 20's to their later 60's was determined (FIGS. 1 and 2). Similar data were obtained using healthy men. […] Those individuals with an elevated level of sympathetic activity responsive to a ganglionic blocking drug (e.g., a reduction in the number of bursts per minute that is greater than 10 burst per minute) can be optimal candidates for sympatholytic therapy.

Experiment [2] concerns young and older postmenopausal women. Description: Ganglionic (autonomic) blockade with trimethaphan camsylate in young and older postmenopausal women: blood pressure and muscle sympathetic nerve activity. The note with it: during trimethaphan. It is filed as in vivo, humans. The text has this:
FIG. 1 is a graph plotting muscle sympathetic nerve activity (MSNA; bursts/min) as measured using a microneurography technique for 24 humans. The dose indicates the amount of trimethaphan in mg/min it took to abolish the sympathetic nerve bursts. The MSNA bursts per minute is the amount of sympathetic bursts that occurred at baseline, prior to drug infusion.
FIG. 2 is a graph plotting the same dose of trimethaphan in mg/min compared to the difference in mean arterial pressure (MAP) between baseline and at the final trimethaphan dose.
The effect of ganglionic blockade on arterial blood pressure and how this relates to baseline muscle sympathetic nerve activity in 12 young (25±1 years) and 12 older postmenopausal (61±2 years) women were examined. The women were studied before and during autonomic blockade using trimethaphan camsylate. At baseline, muscle sympathetic nerve activity burst frequency and burst incidence were higher in the older women (33±3 versus 15±1 bursts/min; 57±5 versus 25±2 bursts/100 heartbeats, respectively; P<0.05). Muscle sympathetic nerve activity bursts were abolished by trimethaphan within minutes (e.g., between about 6 and about 35 minutes). […] Baseline muscle sympathetic nerve activity was associated with the decrease in mean arterial pressure during trimethaphan (r=−0.74; P<0.05). See, also, Barnes et al., Hypertension, 63:303-308 (2014).

[3] abbreviates: older postmenopausal women (61±2 years, n=12).

Take `O=C1N(Cc2ccccc2)C2C[S+]3CCCC3C2N1Cc1ccccc1` (stereo not drawn) [trimethaphan, trimethaphan camsylate]: the “fall in blood pressure” value in experiment [1] is “directly related to baseline sympathetic activity”. For the same compound, in experiment [2] (12 young and 12 older postmenopausal women), the “Muscle sympathetic nerve activity bursts” value is listed as “abolished”. Further, the “decrease in mean arterial pressure” value in experiment [2] (setting [3]) is −29±2 mm Hg; in experiment [2] (young women (25±1 years, n=12)) it was −9±2 mm Hg. In addition, the “decrease in total peripheral resistance” value was −10±1 mm Hg/L per minute in experiment [2] (setting [3]) and −5±1 mm Hg/L per minute in experiment [2] (young women (25±1 years, n=12)).
